# Test results from patent US9000027B2, “Chk1 suppresses a caspase-2 apoptotic response to DNA damage that bypasses p53, bcl-2 and caspase-3” (Dana-Farber Cancer Institute, Inc., priority 2008, dated 2015).
# Experiments:
# MK-2 [1] = target: T1, MK-2 (Homo sapiens, UniProt P49137); experiment: Western blot of MK-2 activity (Hsp-27 Ser82 phosphorylation) in irradiated HeLa cells; format: cell-based; design: endogenous in cells; host or cells: HeLa; settings: irradiated HeLa cells, increasing concentrations of SB203580
# Experimental: Protein extract (5-60 μg) was added to 4× gel loading buffer and 10× denaturing solution (Invitrogen) in appropriate proportions, and samples were incubated at 70° C. for 10 min. Samples were run at 200V for 1 hr on a 4-12% Bis-tris gradient gel (Invitrogen). After electrophoresis, samples were transferred for 1.5 hr (350 mA) to a Nitrocellulose membrane (Millipore) using a submerged transfer apparatus (Bio-Rad). Membranes were then blocked with 5% milk in Tris-buffered saline with 0.1% tween (TBST) and probed overnight at 4° C. with the following antibodies: anti-zebrafish Chk1 (diluted 1:200), anti-zebrafish Chk2 (1:200), anti-P-Cdc2 (1:1000), anti-actin (1:2000), anti-human ATR (1:500) and Stressgen anti-human-caspase-3 (1:500) for zebrafish immunoblots; and anti-caspase-2 (1:200), Upstate anti-caspase-3 (1:500), anti-P-ATM (1:500), anti-ATM (1:500), Santa Cruz anti-human Chk1 (1:1000), Santa Cruz anti-human Chk2 (1:1000), anti-P-Chk1 (1:500), anti-P-Chk2 (1:500), anti-P-H2A.X (1:2000), anti-P-cdc25C (1:1000), anti-P-HSP27 (1:1000), anti-HSP27 (1:1000), anti-P-Cdc2 (1:1000), anti-p53 (1:1000) and anti-GAPDH (1:5000) for immunoblots of human tumor cell lysates. Detailed references for all primary antibodies can be found in the ‘Antibodies’ section elsewhere herein.
# Target sequence in this assay (P49137 whole entry): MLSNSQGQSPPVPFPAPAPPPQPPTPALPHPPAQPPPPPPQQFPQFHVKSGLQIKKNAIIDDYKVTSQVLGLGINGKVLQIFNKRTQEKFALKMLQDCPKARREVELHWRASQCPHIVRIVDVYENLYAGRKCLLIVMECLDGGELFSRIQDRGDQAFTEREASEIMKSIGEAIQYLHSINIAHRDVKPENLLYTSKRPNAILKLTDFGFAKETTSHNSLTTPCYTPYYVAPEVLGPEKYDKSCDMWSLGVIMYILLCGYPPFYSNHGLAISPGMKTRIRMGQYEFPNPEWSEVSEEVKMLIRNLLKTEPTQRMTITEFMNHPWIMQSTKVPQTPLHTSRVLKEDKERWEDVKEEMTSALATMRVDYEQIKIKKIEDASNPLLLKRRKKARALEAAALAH
# MK-2 [2] = target: T1, MK-2; settings: concentration initially thought to specifically inhibit Chk1; cited from earlier work
# Target sequence in this assay (P49137 whole entry, species assumed): as the sequence (P49137 whole entry) above
# Chk1 = target: T2, Chk1 (Homo sapiens, UniProt O14757); settings: concentration initially thought to specifically inhibit Chk1; cited from earlier work
# T2 sequence (O14757 1-476): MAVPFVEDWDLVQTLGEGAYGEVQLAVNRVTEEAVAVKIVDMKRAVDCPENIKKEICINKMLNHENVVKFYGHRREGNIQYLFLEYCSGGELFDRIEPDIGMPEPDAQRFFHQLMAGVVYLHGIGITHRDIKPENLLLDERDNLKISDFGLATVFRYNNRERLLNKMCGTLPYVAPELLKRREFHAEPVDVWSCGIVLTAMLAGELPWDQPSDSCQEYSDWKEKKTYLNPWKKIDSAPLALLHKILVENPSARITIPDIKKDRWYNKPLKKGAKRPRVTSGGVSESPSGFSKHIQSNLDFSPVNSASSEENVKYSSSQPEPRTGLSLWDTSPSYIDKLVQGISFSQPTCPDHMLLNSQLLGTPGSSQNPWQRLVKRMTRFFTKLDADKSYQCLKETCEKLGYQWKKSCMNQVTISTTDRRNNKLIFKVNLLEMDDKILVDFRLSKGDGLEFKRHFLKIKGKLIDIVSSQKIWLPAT
# zebrafish ATR = experiment: MO knockdown efficiency: western blot of ATR levels; format: in vivo; settings: atr MO 0.25 mM, 25.5 hpf lysates
# From the text: (§1) (A) Western blot of 25.5 hpf zebrafish protein lysates from non-injected and atr MO-injected embryos using an anti-human ATR antibody recognizing an internal peptide that is highly conserved in zebrafish Atr. Detection of a high molecular weight zebrafish band showing the same migration pattern as human ATR (lane 1) strongly supports crossreactivity of the antibody with zebrafish ATR (the predicted molecular weight of zebrafish ATR, 300 kDa, matches that of human ATR). […] The MO concentration used in the MO screen (FIG. 1) and epistasis analyses (FIG. 5), 0.25 mM, leads to a >50% reduction in ATR levels compared to control (compare lanes 5 with 2 and 3). (B-E) Gel migration profiles of RT-PCR products from non-injected and MO-injected embryos using primers in exons flanking the targeted exon (Table 1). All bands were excised and sequenced. […] All RT-PCRs are semi-quantitative with β-actin amplicon serving as loading control. […] Either aberrant splice product results in the occurrence of an inappropriate early stop codon (as a result of in-frame reading of the intron or of a frameshift caused by exon skipping), which is predicted to result in an early truncation of the ATM protein before the PIKK kinase domain. […] As exemplified in lane 4, this same MO concentration could lead to stronger knockdowns, but in this case the embryos could not be scored in the assay. […]
# [3] = tested on: p53^e7/e7;chk1^MO embryos; experiment: Epistasis analyses in irradiated p53^e7/e7;chk1^MO embryos (live AO assay); format: in vivo; settings: 12.5 Gy
# Experimental: To identify such molecules, we performed in vivo epistasis analyses in zebrafish by knocking down or forcing the expression of candidate pathway contributors in p53^e7/e7;chk1^MO embryos.
# Morpholino oligonucleotides (MOs) synthesized by Gene Tools™ LLC, were resuspended in sterile water at a concentration of 1 mM and delivered into zebrafish embryos at the one-cell stage by microinjection. The injection apparatus consisted of a heat-pulled, filamentous RNAse free capillary tube positioned by a micromanipulator (Narishige™ M-125), through which the MO was pressure-injected using a nitrogen air supply controlled by a microinjector (Harvard Apparatus™ PLI-100). MOs were delivered into the yolk of embryos at the one cell stage, just below the cytoplasm. For each previously unpublished MO, the working concentration was determined as the highest dose compatible with normal zebrafish development in the p53^e7/e7 background (maximal subtoxic concentration). […] 100 ng of bcl-xl mRNA in vitro transcribed from full-length zebrafish bcl-xl cDNA cloned into pCS2 were injected as described above. All embryos were grown at 28.5° C. in egg water (5 mM NaCl, 0.17 mM KCl, 0.4 mM CaCl2 and 0.16 mM MgSO4). Knockdown efficiencies for the chk1, chk2, atm, atr, p63, casp8 and casp9 MOs at their maximal subtoxic concentrations are shown in FIG. 10. The sequences of the PCR primers used for RT-PCR-based monitoring of MO efficiencies are available upon request.
# Live zebrafish embryos were dechorionated in pronase (2.0 mg/mL in egg water) for 3 to 5 min and rinsed five times in egg water at 18 hpf. […] At 24 hpf, embryos were incubated in […] Acridine Orange (AO; Sigma A-6014) in egg water for 30 min at 28.5° C., followed by 3 quick rinses and three 10-min washes in egg water. 5-10 AO-treated embryos were anesthetized in Tricaine ([…]; 3-amino benzoic acid ethylester from Sigma, A-5040) and mounted laterally on a glass slide in warm 0.5% agarose in egg water by streaking a thin layer of the warm agarose across the surface of the slide, and gently pulling the embryos across the agar with a transfer pipette. Lateral images of each zebrafish were acquired on a Zeiss Axioplan2 fluorescence microscope (5× lens), using OpenLab software and a Hammamatsu C4742-95 digital camera. All images were then converted to 8-bit grayscale in NIH ImageJ using the Image>Type>8-bit command. Next, we cropped the images using the Polyonal Selection tool and the Image>Crop functions to include only the trunk of the animal from the head until the beginning of the yolk tube (MO screen; FIG. 1B) or along the entire spinal cord (epistasis analyses; FIGS. 6A & 6D). The area outside of the selected region of interest was cleared using the Edit>Clear Outside command to create a distinct boundary around the area of interest (this is important as it allows the area of interest to be precisely selected after applying the threshold). Next, we split the acquired images into features of interest and background using the Image>Adjust>Threshold function in NIH ImageJ. We then set the maximum threshold of each image to 255 (the lower slide bar in the Threshold window), and adjusted the minimum threshold to the optimized threshold (see below). The threshold was applied using the Black & White display option, with the following Lut options applied; Thresholded pixels to foreground color; Remaining pixels to background color and Black foreground, white background. […] Next, we re-selected the region of interest on the thresholded image, following the bounded image carefully, and analyzed the pixels of the image using the Analyze>Analyze Particles function. The Minimum Size was set to 1px, the Maximum Size was set to the maximum value of 999999 and the Masks option was selected under the Show pull-down menu. The following extended options were also selected: Display Results; Clear Results; Summarize, Size Distribution and Record Starts. […]
# casp9 = experiment: MO knockdown efficiency: RT-PCR of casp9 transcripts; format: in vivo, zebrafish; settings: maximal subtoxic MO concentration
# From the text: as §1
# p53^e7/e7 mutant embryos = experiment: Morpholino screen for suppressors of p53^e7/e7 radioresistance (live AO assay); format: in vivo, zebrafish; settings: p53^e7/e7, 12.5 Gy
# Experimental: We used morpholino antisense oligonucleotides (MOs) to knock down the expression levels of 8 zebrafish S- and G2-checkpoint kinases in p53^e7/e7 mutant embryos and assessed the ability of each knockdown to restore cell death (AO reactivity) at 7.5 hours post-IR (hpIR). We also tested several double-knockdown combinations, as well as knockdowns of non-kinase checkpoint regulators (p21^waf1/cip1 and smc1). For each knockdown, we scored a minimum of 50 embryos and quantified AO staining in at least 5 embryos. To avoid the isolation of false-positives, we adjusted the concentrations of each MO to the maximal dose compatible with normal embryonic development in the p53^e7/e7 background.
# Morpholino oligonucleotides (MOs) synthesized by Gene Tools™ LLC, were resuspended in sterile water at a concentration of 1 mM and delivered into zebrafish embryos at the one-cell stage by microinjection. […] For each previously unpublished MO, the working concentration was determined as the highest dose compatible with normal zebrafish development in the p53^e7/e7 background (maximal subtoxic concentration). […]
# Live zebrafish embryos were dechorionated in pronase (2.0 mg/mL in egg water) for 3 to 5 min and rinsed five times in egg water at 18 hpf. […] Lateral images of each zebrafish were acquired on a Zeiss Axioplan2 fluorescence microscope (5× lens), using OpenLab software and a Hammamatsu C4742-95 digital camera. […]
molecule,measurement,setting,value
C[S+]([O-])c1ccc(-c2nc(-c3ccncc3)c(-c3ccc(F)cc3)[nH]2)cc1 (centres unmarked) [SB203580],phosphorylated Hsp-27 at Ser82 versus native Hsp-27,MK-2 [1],reduction in the abundance of phosphorylated Hsp-27 at Ser82
"CN[C@@H]1C[C@H]2O[C@@](C)([C@@H]1OC)n1c3ccccc3c3c4c(c5c6ccccc6n2c5c31)C(=O)N[C@H]4O [UCN-01, 7-hydroxystaurosporine]",MK-2 inhibition,MK-2 [2],inhibits both Chk1 and MK-2
same,Chk1 inhibition,Chk1,inhibits both Chk1 and MK-2
atr MO: morpholino against zebrafish atr atg/5'UTR (SEQ ID NO: 15) (TGACATTTCTAGTCCTTGCTCCATC; antisense; all phosphorodiamidate morpholino (PMO)),reduction in ATR levels compared to control,zebrafish ATR,> 50%
same,reduction of the mean p53^e7/e7;chk1^MO AO response,[3],~90%
casp9 MO: morpholino against zebrafish casp9 splice donor site (SEQ ID NO: 26) (GATGGAAAAACACACTTACGGACTG; antisense; all phosphorodiamidate morpholino (PMO)),casp9 knockdown,casp9,~50%
same,effect on IR-induced cell death (AO labeling) of p53^e7/e7;chk1^MO embryos,[3],complete absence of effects
"chk1 mismatch MO: 5 base-pair mismatch version of chk1 MO, agCcaGagcGattatCcaatGttcg (SEQ ID NO: 12) (AGCCAGAGCGATTATCCAATGTTCG; all phosphorodiamidate morpholino (PMO))",radiosensitization of p53 mutants,p53^e7/e7 mutant embryos,failed to radiosensitize p53 mutants
